Key:
[1] = Dynamic light scattering (DLS) of mRNA/peptoid formulations: particle size and polydispersity; type: physicochemical; conditions: Fluc mRNA/peptoid formulation; for Size PDI: size polydispersity index by DLS, 5:1 mass ratio; for Size (nm): volume average particle size/diameter by DLS, 5:1 mass ratio peptoid:cargo
How it was run: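 Fluc mRNA was complexed with amino lipidated peptoids by pipetting at a 5:1 peptoid:cargo mass ratio, peptoid in ethanol and mRNA in PBS pH 5.5 (1:3 volume ratio). DLS gave volume-average diameter (nm) and polydispersity index.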

HeLa cells [2] = experiment: In vitro expression of firefly luciferase (Fluc) after treatment with Fluc mRNA/amino lipidated peptoid formulations, no PEG or 2% DMG-PEG2000; type: cell-based
How it was run: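 Peptoid/Fluc mRNA particles (5:1 w/w), without PEG or with DMG-PEG2000 pre-mixed into peptoid at 2% w/w, dosed at 100 ng mRNA/well on HeLa cells. Luciferase luminescence (RLU) read after 6 h and 24 h.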

Balb/c mice [3] = experiment: In vivo whole-body expression of Fluc following IV administration; conditions: Balb/c mice (n=3), IV tail-vein, 0.5 mg/kg, 5:1 peptoid:mRNA, 2% w/w DMG-PEG2000, 8 hours
Protocol: (§1) Amino lipidated peptoid delivery vehicles are effective for in vivo administration of Fluc mRNA to Balb/c mice (n=3) through multiple routes of administration. Briefly, representative amino lipidated peptoid/Fluc formulations (prepared at a 5:1 mass ratio of amino lipidated peptoid:mRNA unless noted, with 2% w/w DMG-PEG2000) were administered at a dose of 0.5 mg/kg via a tail-vein injection, and the resulting bioluminescence was quantified after 8 hours.

[4] = mRNA encapsulation by fluorescence of Qubit RNA HS dye before and after lysis with Triton X-100; type: physicochemical; conditions: percentage of mRNA encapsulation; Fluc mRNA/peptoid formulation, 5:1 mass ratio
How it was run: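 Peptoid/Fluc mRNA nanoparticles were formed by pipette mixing at a 5:1 peptoid:mRNA mass ratio. Percent encapsulation came from Qubit RNA HS dye fluorescence before versus after particle lysis with Triton X-100.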

Balb/c mice [5] = experiment: In vivo organ-specific bioluminescence (biodistribution of Fluc) following IV administration; conditions: for Total Flux (p/s) Liver: dissected liver; for Total Flux (p/s) Lung: dissected lung; for Total Flux (p/s) Spleen: dissected spleen
Protocol: as §1, with “hours. […] Organ-specific bioluminescence was quantified by sacrificing the treated animal, dissecting out the organs of interest, and separately quantifying the resulting bioluminescence. […] FIG. 7C depicts a bar chart quantifying the organ-specific biodistribution of the formulations as a function of total photon flux.” for “hours.”

HeLa cells [6] = experiment: In vitro Fluc expression with variable peptoid:mRNA mass ratio, 2% DMG-PEG2000; type: cell-based; conditions: 24 h; for Observed Luciferase Expression (RLU) for Given Formulation Mass Ratio 2:1: 2% (w/w) DMG-PEG2000, peptoid:mRNA 2:1; for Observed Luciferase Expression (RLU) for Given Formulation Mass Ratio 3.5:1: 2% (w/w) DMG-PEG2000, peptoid:mRNA 3.5:1; for Observed Luciferase Expression (RLU) for Given Formulation Mass Ratio 5:1: 2% (w/w) DMG-PEG2000, peptoid:mRNA 5:1; for Observed Luciferase Expression (RLU) for Given Formulation Mass Ratio 7.5:1: 2% (w/w) DMG-PEG2000, peptoid:mRNA 7.5:1
How it was run: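 Fluc mRNA particles formulated at 2:1, 3.5:1, 5:1 and 7.5:1 peptoid:mRNA (w/w), with DMG-PEG2000 at 2% (w/w) relative to amino lipidated peptoid. HeLa cells treated for 24 hours; Fluc expression read as bioluminescence (RLU).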

[7] = MTT viability assay after treatment with Fluc mRNA/amino lipidated peptoid formulations; type: cell-based; conditions: human, HeLa cells
How it was run: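 Formulations (peptoid:mRNA 5:1 mass ratio, 2% w/w DMG-PEG2000) were applied at 100 ng Fluc mRNA per well for 8 h, followed by 48 h of growth. Cells then received 1.5 mg/mL MTT for 2 h, and formazan signal was normalized to untreated cells.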

Balb/c mice [8] = experiment: In vivo expression of Fluc following subcutaneous or intramuscular administration; conditions: for Total Flux (photons/sec) I.M. (0.05 mpk): mRNA 0.05 mpk; for Total Flux (photons/sec) S.C. (0.1 mpk): subcutaneous, mRNA 0.1 mpk
Protocol: In addition to IV administration, amino lipidated peptoids are also effective for local administration of mRNA through subcutaneous (S.C.) or intramuscular (I.M.) routes of administration. […] For these examples, mRNA was administered at a dose of 0.1 milligrams/kilogram (mpk) for subcutaneous or 0.05 mpk for intramuscular. In these cases, the overall expression was higher following intramuscular injections. […] Additional experiments were carried out to assess any variability in biodistribution as a function of the loading mass ratio of amino lipidated peptoid to the Fluc mRNA. FIG. 8A depicts a plot of total photon flux for formulations of amino lipidated peptoid compound 28 with 2% DMG-PEG 2000 and Fluc mRNA at different peptoid:mRNA ratios (1:1, 2:1, 5:1, 7.5:1 and 10:1).

[9] = no PEG, peptoid:Fluc mRNA 5:1 w/w, 100 ng/well, 6 h of treatment
[10] = no PEG, peptoid:Fluc mRNA 5:1 w/w, 100 ng/well, 24 h of treatment
[11] = with 2% (w/w) DMG-PEG2000, peptoid:mRNA 5:1, 6 h after treatment
[12] = with 2% (w/w) DMG-PEG2000, peptoid:mRNA 5:1, 24 h after treatment

| Size PDI [1] | Size (nm) [1] | % Encapsulation [4] | Structure (SMILES) | Luciferase Expression (RLU) 6 h (HeLa cells [2]; [9]) | Luciferase Expression (RLU) 24 h (HeLa cells [2]; [10]) | Luciferase Expression (RLU) 6 h (HeLa cells [2]; [11]) | Luciferase Expression (RLU) 24 h (HeLa cells [2]; [12]) | Total Flux (photons/sec), whole body (Balb/c mice [3]) | Total Flux (p/s) Liver (Balb/c mice [5]) | Total Flux (p/s) Lung (Balb/c mice [5]) | Total Flux (p/s) Spleen (Balb/c mice [5]) | Observed Luciferase Expression (RLU) for Given Formulation Mass Ratio 2:1 (HeLa cells [6]) | Observed Luciferase Expression (RLU) for Given Formulation Mass Ratio 3.5:1 (HeLa cells [6]) | Observed Luciferase Expression (RLU) for Given Formulation Mass Ratio 5:1 (HeLa cells [6]) | Observed Luciferase Expression (RLU) for Given Formulation Mass Ratio 7.5:1 (HeLa cells [6]) | viability at 8 h, 500 ng/well ([7]; Relative Viability (%) 2% PEG) | Total Flux (photons/sec) I.M. (0.05 mpk) (Balb/c mice [8]; intramuscular) | Total Flux (photons/sec) S.C. (0.1 mpk) (Balb/c mice [8]) | viability at 8 h, 500 ng/well ([7]; Relative Viability (%) No PEG) | also measured |
| --- | --- | --- | --- | --- | --- | --- | --- | --- | --- | --- | --- | --- | --- | --- | --- | --- | --- | --- | --- | --- |
| 0.233 | 554 nm | 77.3% | CCCCCCCCCCN(CC(N)=O)C(=O)CN(CCCCCCCCCC)C(=O)CN(CCN)C(=O)CN(CCN)C(=O)CNCCN [Compound 14] | 3.20E+01 RLU | 1.43E+01 RLU | 4.67E+00 RLU | 9.00E+00 RLU | 4.58E+05 photons/sec | 4.47E+04 p/s | 4.17E+04 p/s | 4.89E+04 p/s | 8.31E+01 RLU | 1.42E+02 RLU | 4.29E+01 RLU | 2.82E+01 RLU | 91% | – | – | – | – |
| 0.085 | 308 nm | 52.0% | CCCCCCCCCCN(CC(N)=O)C(=O)CN(CCCCCCCCCC)C(=O)CN(CCCCCCCCCC)C(=O)CN(CCCCCCCCCC)C(=O)CN(CCc1ccccc1)C(=O)CN(CCc1ccccc1)C(=O)CN(CCCN)C(=O)CN(CCc1ccccc1)C(=O)CN(CCc1ccccc1)C(=O)CN(CCCN)C(=O)CN(CCc1ccccc1)C(=O)CN(CCc1ccccc1)C(=O)CNCCCN [Compound 28] | 9.59E+02 RLU | 4.97E+03 RLU | 8.33E+02 RLU | 6.94E+02 RLU | 2.36E+08 photons/sec | 1.10E+07 p/s | 7.08E+07 p/s | 2.16E+08 p/s | 1.26E+02 RLU | 1.93E+03 RLU | 5.75E+03 RLU | 2.07E+04 RLU | 92.7% | 7.23E+06 photons/sec | 1.65E+06 photons/sec | 85.4% | organ localization of Fluc expression (Balb/c mice [5]; organ-specific bioluminescence): preferential localization in other organs such as the spleen; expression after IM administration compared with Compound 8 (Balb/c mice [8]; intramuscular): significantly outperformed that example |
| 0.128 | 150 nm | 100.3% | CCCCCCCCCCN(CC(N)=O)C(=O)CN(CCCCCCCCCC)C(=O)CN(CCc1ccccc1)C(=O)CN(CCc1ccccc1)C(=O)CN(CCN)C(=O)CN(CCc1ccccc1)C(=O)CN(CCc1ccccc1)C(=O)CN(CCN)C(=O)CN(CCc1ccccc1)C(=O)CN(CCc1ccccc1)C(=O)CNCCN [Compound 2] | 2.35E+02 RLU | 1.35E+02 RLU | 5.40E+01 RLU | 1.17E+02 RLU | 1.37E+07 photons/sec | 1.40E+06 p/s | 2.46E+07 p/s | 3.39E+06 p/s | 2.45E+04 RLU | 1.80E+04 RLU | 2.81E+04 RLU | 1.49E+03 RLU | 92.6% | 1.27E+05 photons/sec | 8.31E+04 photons/sec | 90.6% | – |
